Results taken from ChEMBL document CHEMBL5344431 (J Med Chem, 2024).
Activity calls are given as the source filed them. The calls are words filed in the database; no cut-off is given here.

Biological target: T1, Histone deacetylase 8 (Homo sapiens) (UniProt Q9BY41)
T1 sequence (whole entry): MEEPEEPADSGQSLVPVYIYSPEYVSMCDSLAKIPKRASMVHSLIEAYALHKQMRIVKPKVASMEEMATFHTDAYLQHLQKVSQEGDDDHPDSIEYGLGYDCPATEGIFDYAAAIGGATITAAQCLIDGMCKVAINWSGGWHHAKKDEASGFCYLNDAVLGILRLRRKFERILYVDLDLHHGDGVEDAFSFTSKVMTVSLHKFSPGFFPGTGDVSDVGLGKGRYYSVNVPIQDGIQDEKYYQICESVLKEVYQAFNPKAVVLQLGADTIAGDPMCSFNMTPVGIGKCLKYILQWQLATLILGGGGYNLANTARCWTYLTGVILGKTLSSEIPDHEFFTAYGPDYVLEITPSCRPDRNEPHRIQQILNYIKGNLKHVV
Assay: Inhibition of HDAC8 in human OCI-AML3 cells assessed as increase in SMC3 acetylation at 20 to 40 uM incubated for 72 hrs by Western blotting analysis
Format: cell-based
Details: OCI-AML-3, dose 20-40 µM

Row | inhibition | SMILES
1 | Active | C#Cc1ccc[n+](C)c1

Biological target: T2, Histone deacetylase 8 (Homo sapiens, UniProt Q9BY41)
T2 sequence (Q9BY41 whole entry): T1 sequence (whole entry)
Assay: Inhibition of HDAC8 (unknown origin) using Boc-Lys(TFA)-AMC as substrate preincubated for 1 hr followed by substrate addition and measured after 15 mins by fluorescence based method
Details: not given

Row | SMILES | IC50 [µM]
2 | C#Cc1cnccn1 | > 50
3 | N#Cc1c[nH]cn1 | > 50
4 | Ic1ncc[nH]1 | > 50
5 | Brc1cncnc1 | > 50
6 | Clc1c[nH]cn1 | > 50
7 | C#Cc1cccnc1 | > 50
8 | Clc1ccccn1 [2-CHLOROPYRIDINE] | > 50
9 | C[n+]1ccccc1Cl | > 50
10 | Clc1cccnc1 | > 50
11 | Clc1cn[nH]c1 | > 50
12 | Cn1cc(C#N)[n+](C)c1 | 24
13 | Ic1cnccn1 | > 50
14 | Cn1cc(C#N)c[n+]1C | > 50
15 | Brc1c[nH]cn1 | > 50
16 | Brc1nccs1 | > 50
17 | C=Cc1ccncc1 | > 50
18 | C=Cc1ccccn1 | > 50
19 | C#Cc1cnc[n+](C)c1 | 21
20 | Ic1ccn[nH]1 | > 50
21 | Ic1ncco1 | > 50
22 | C[n+]1ccsc1C#N | > 50
23 | Clc1ccncc1 | > 50
24 | Clc1ncccn1 | > 50

Row | SMILES | IC50 [µM]
25 | Clc1ccncn1 | > 50
26 | C#Cc1cncnc1 | > 50
27 | C[n+]1ccnc(Br)c1 | 27
28 | Ic1cncnc1 | > 50
29 | C=Cc1cc[n+](C)n1C | > 50
30 | N#Cc1cccnc1 | > 50
31 | Brc1ccccn1 | > 50
32 | C#Cc1ccccn1 | > 50
33 | Cc1noc(C)c1I | > 50
34 | Clc1cncnc1 | > 50
35 | Brc1cn[nH]c1 | > 50
36 | C=Cc1ccn[nH]1 | > 50
37 | N#Cc1cncnc1 | > 50
38 | C#Cc1ccn[nH]1 | > 50
39 | Cn1cc(I)[n+](C)c1 | 31
40 | Brc1cnccn1 | > 50
41 | Brc1ccn[nH]1 | > 50
42 | C[n+]1ccnc(C#N)c1 | > 50
43 | N#Cc1cn[nH]c1 | > 50
44 | C[n+]1cncc(C#N)c1 | > 50
45 | N#Cc1ccncn1 | > 50
46 | C=Cc1cccnc1 | > 50
47 | Brc1ncccn1 | > 50

Row | SMILES | IC50 [µM]
48 | Clc1ncc[nH]1 | > 50
49 | C[n+]1cnccc1Cl | > 50
50 | N#Cc1ccncc1 [ISONICOTINONITRILE] | > 50
51 | Brc1cccnc1 | > 50
52 | C#Cc1cc[n+](C)n1C | > 50
53 | C#Cc1cn[nH]c1 | > 50
54 | Brc1ncc[nH]1 | > 50
55 | C#Cc1ncccn1 | > 50
56 | C[n+]1ccnc(I)c1 | 27
57 | C=Cc1cncnc1 | > 50
58 | N#Cc1nccs1 | > 50
59 | Cn1c(Br)cc[n+]1C | 23
60 | C=Cc1cnccn1 | > 50
61 | N#Cc1cnccn1 | > 50
62 | Brc1ccncc1 | > 50
63 | Cn1cc[n+](C)c1C#N | 22
64 | Ic1cn[nH]c1 | > 50
65 | N#Cc1ncc[nH]1 | > 50
66 | Ic1c[nH]cn1 | > 50
67 | N#Cc1ccccn1 | > 50
68 | Cn1cc(Br)c[n+]1C | 27
69 | Clc1cnccn1 | > 50
70 | Cn1cc(Br)[n+](C)c1 | 20

Second part, the compound after the results:

Row | IC50 [µM] | SMILES
71 | 0.97 | Cn1cc[n+](C)c1Cl
72 | 4.61 | Ic1ccncc1
73 | 12 | C[n+]1cccc(C#N)c1
74 | 19 | Cn1c(I)cc[n+]1C
75 | 3.1 | C[n+]1ccc(Br)cc1
76 | 0.13 | C[n+]1csc(Br)c1
77 | 0.44 | C[n+]1ccccc1I
78 | 2.3 | C[n+]1ccnc(Cl)c1
79 | 4.3 | C[n+]1cncc(Cl)c1
80 | 14 | Cn1cc(Cl)c[n+]1C
81 | 14 | C[n+]1cccc(Cl)c1
82 | 4.7 | C[n+]1cccc(I)c1
83 | 5 | C=Cc1ccc[n+](C)c1
84 | 16 | Cn1cc(Cl)[n+](C)c1
85 | 1.8 | Cn1cc[n+](C)c1I
86 | 3.6 | C[n+]1cnccc1C#N
87 | 2.9 | Cc1o[n+](C)c(C)c1I
88 | 0.44 | C[n+]1ccc(I)cc1
89 | 0.42 | C#Cc1c[n+](C)ccn1
90 | 5.6 | Brc1cncs1
91 | 5 | C=Cc1cnc[n+](C)c1
92 | 8 | C[n+]1cccc(Br)c1

Row | IC50 [µM] | SMILES
93 | 0.152 | C[n+]1cccnc1I
94 | 0.12 | C[n+]1cncc(I)c1
95 | 2.1 | C#Cc1cccc[n+]1C
96 | 0.3 | C[n+]1cncc(Br)c1
97 | 0.22 | C[n+]1cccnc1Br
98 | 6.5 | C[n+]1ccc(Cl)cc1
99 | 14 | C[n+]1ccc(C#N)cc1
100 | 0.079 | C#Cc1cc[n+](C)cc1
101 | 0.33 | Cn1cc[n+](C)c1Br
102 | 3.4 | C=Cc1cc[n+](C)cc1
103 | 1.2 | C[n+]1ccoc1I
104 | 0.74 | C#Cc1nccc[n+]1C
105 | 1.2 | C[n+]1ccsc1Br
106 | 0.42 | C=Cc1c[n+](C)ccn1
107 | 12.6 | C#Cc1ccncc1
108 | 5.3 | C[n+]1ccccc1C#N
109 | 8.2 | C#Cc1ccc[n+](C)c1
110 | 10 | C#Cc1cn(C)[n+](C)c1
111 | 2.24 | Ic1ncccn1
112 | 9 | Cn1cc(I)c[n+]1C
113 | 0.43 | C[n+]1cccnc1Cl
114 | 1.3 | C[n+]1ccccc1Br

Biological target: T1, Histone deacetylase 8 (Homo sapiens)
Assay: Inhibition of HDAC8 in human OCI-AML3 cells assessed as increase in SMC3 acetylation at 10 uM incubated for 72 hrs by Western blotting analysis
Format: cell-based
Details: OCI-AML-3

Row | inhibition | SMILES
115 | Active | C#Cc1c[n+](C)ccc1NC(=O)CC(=O)N1Cc2ccccc2C1

Biological target: T1, Histone deacetylase 8 (Homo sapiens)
Assay: Inhibition of HDAC8 (unknown origin) at 0.0001 to 10000 uM using Boc-Lys(TFA)-AMC as substrate preincubated for 1 hr followed by substrate addition and measured after 15 mins by fluorescence based method
Details: dose 0.0001-10000 µM, time 75.0 min

Row | inhibition | SMILES
116 | inactive | C#Cc1c[n+](C)ccc1NC(=O)N1Cc2ccccc2C1
117 | inactive | C#Cc1c[n+](C)ccc1NC(=O)CCC(=O)N1Cc2ccccc2C1

Biological target: T1, Histone deacetylase 8 (Homo sapiens)
Assay: Inhibition of HDAC8 (unknown origin) upto 100 uM using Boc-Lys(TFA)-AMC as substrate preincubated for 1 hr followed by substrate addition and measured after 15 mins by fluorescence based method
Details: time 75.0 min

Row | inhibition | SMILES
118 | inactive | C#Cc1cnccc1NC(=O)N1Cc2ccccc2C1
119 | inactive | C#Cc1cnccc1NC(=O)CC(=O)N1Cc2ccccc2C1
120 | inactive | C#Cc1cnccc1NC(=O)CCC(=O)N1Cc2ccccc2C1
121 | inactive | C#Cc1c[n+](C)ccc1NC(=O)CCC(=O)N1Cc2ccccc2C1

Biological target: T1, Histone deacetylase 8 (Homo sapiens)
Assay: Inhibition of HDAC8 (unknown origin) assessed as Kinact using Boc-Lys(TFA)-AMC as substrate by fluorescence based method
Details: not given

Row | K [s⁻¹] | SMILES
122 | 0.005 | C#Cc1c[n+](C)ccc1NC(=O)CC(=O)N1Cc2ccccc2C1
123 | 0.003 | C#Cc1ccc[n+](C)c1
